According to patent US4877795A, “4H-quinolizin-4-one compounds useful for the treatment of allergic bronchial asthma, allergic rhinitis atropic dermatitis and the like” (Kissei Pharmaceutical Co., Ltd., priority 1987, dated 1989):

Columns and labels:
[1] = tested on: IgE; assay: Determination of Igs produced in in vitro culture: inhibition of IgE secreted by spleen cells (adoptive secondary immune response to DNP-As), ELISA; format: cell-based, BALB/c mice; details: 4 days culture; for inhibition at 2.5 µg/mL: 2.5 μg/ml; for inhibition at 5 µg/mL: 5.0 μg/ml; for inhibition at 40 µg/mL: 40.0 μg/ml
Method: (§1) Determination of Igs produced in in vitro culture
(§2) BALB/c mice were immunized intraperitoneally with 5 μg of DNP-As adsorbed in 4 mg aluminum hydroxide gel. 4 weeks after the immunization, the spleens were excised from the mice and 5×10^7 spleen cells were transferred intravenously into the recipient mice which had been exposed to 600 rad of X-ray irradiation. Immediately after cell transfer, the recipients were then immunized intraperitoneally with 5 μg of DNP-As adsorbed in 4 mg aluminum hydroxide gel to induce adoptive secondary immune response. Further 4 weeks after the immunization of recipients, the spleens were excised from them and the spleen cell suspensions 5×10^6 cells/ml were cultured with or without a compound to be tested in 96-well micro plates at 37° C. for 4 days. IgE and IgG secreted into the culture supernatant was each determined correspondingly by ELISA and the inhibitory effect was calculated according to the following equation. [formula]

[2] = tested on: IgG; assay: Determination of Igs produced in in vitro culture: inhibition of IgG secreted by spleen cells (adoptive secondary immune response to DNP-As), ELISA; format: cell-based, BALB/c mice; details: 4 days culture; for inhibition at 2.5 µg/mL: 2.5 μg/ml; for inhibition at 5 µg/mL: 5.0 μg/ml; for inhibition at 40 µg/mL: 40.0 μg/ml; for inhibition at 1 µg/mL / Inhibition % of IgG: 1.0 μg/ml
Method: as §1, §2

`CCCCOC(=O)c1c(SC)c(C#N)c(=O)n2ccccc12` [S-9, Butyl 3-cyano-2-methylthio-4H-quinolizin-4-one-1-carboxylate] showed an inhibition at 2.5 µg/mL ([1]; Mus musculus, 96 h) of 54% and an inhibition at 2.5 µg/mL ([2]; Mus musculus, 96 h) of 17%.

With `CSc1c(C#N)c(=O)n2ccccc2c1C(=O)OC1CCCC1` [S-12, Cyclopentyl 3-cyano-2-methylthio-4H-quinolizin-4-one-1-carboxylate] the inhibition at 5 µg/mL ([1]; Mus musculus, 96 h) was 65% and the inhibition at 5 µg/mL ([2]; Mus musculus, 96 h) was 32%.

`CSc1c(C#N)c(=O)n2ccccc2c1C(=O)N(C(C)C)C1CCCCC1` [S-69, 3-Cyano-N-cyclohexyl-N-isopropyl-2-methylthio-4H-quinolizin-4-one-1-carboxamide] gave an inhibition at 2.5 µg/mL ([1]; Mus musculus, 96 h) of 56% and an inhibition at 2.5 µg/mL ([2]; Mus musculus, 96 h) of 22%.

`CCOC(=O)c1c(SCc2ccccc2)c(C#N)c(=O)n2ccccc12` [S-59, Ethyl 3-cyano-2-benzylthio-4H-quinolizin-4-one-1-carboxylate] was tested, and the inhibition at 40 µg/mL ([1]; Mus musculus, 96 h) was 74% and the inhibition at 40 µg/mL ([2]; Mus musculus, 96 h) was 49%.

In the case of `CSc1c(C#N)c(=O)n2ccccc2c1C(=O)N1CCC2CCCCC21` (single isomer, unassigned) [S-85B, 3-Cyano-2-methylthio-1-(perhydroindol-1-yl-carbonyl)-4H-quinolizin-4-one], the inhibition at 2.5 µg/mL ([1]; Mus musculus, 96 h) is reported as 39% and the inhibition at 2.5 µg/mL ([2]; Mus musculus, 96 h) is reported as 19%.

`COc1cccc(COC(=O)c2c(SC)c(C#N)c(=O)n3ccccc23)c1` [S-35, 3'-Methoxybenzyl 3-cyano-2-methylthio-4H-quinolizin-4-one-1-carboxylate] gave an inhibition at 1 µg/mL ([1]; Mus musculus, 96 h, 1.0 μg/ml) of 64% and an inhibition at 1 µg/mL ([2]; Mus musculus, 96 h) of 45%.

Work on `CSc1c(C#N)c(=O)n2ccccc2c1C(=O)OCCCc1ccccc1` [S-45, 3'-Phenylpropyl 3-cyano-2-methylthio-4H-quinolizin-4-one-1-carboxylate] yielded an inhibition at 5 µg/mL ([1]; Mus musculus, 96 h) of 71% and an inhibition at 5 µg/mL ([2]; Mus musculus, 96 h) of 16%.

For `CSc1c(C#N)c(=O)n2cccc(C)c2c1C(=O)N1CCC(c2ccccc2)CC1` (single isomer, unassigned) [S-81A, 3-Cyano-9-methyl-2methylthio-1-(4-phenylpiperidinocarbonyl)-4H-quinolizin-4-one], the inhibition at 1 µg/mL ([1]; Mus musculus, 96 h, 1.0 μg/ml) was 46% and the “Inhibition % of IgG” value [2] was 17%.

`N#Cc1c(SCc2ccccc2)c(C(=O)N2CCC(c3ccccc3)CC2)c2ccccn2c1=O` (single isomer, unassigned) [S-83A, 2-Benzylthio-3-cyano-1-(4-phenylpiperidinocarbonyl)-4H-quinolizin-4-one] was tested, and the inhibition at 1 µg/mL ([1]; Mus musculus, 96 h, 1.0 μg/ml) was 67% and the inhibition at 1 µg/mL ([2]; Mus musculus, 96 h) was 23%.

For `CSc1c(C#N)c(=O)n2ccc(C)cc2c1C(=O)OCc1ccccc1` [S-28, Benzyl 3-cyano-8-menthyl-2-methylthio-4H-quinolizin-4-one-1-carboxylate], the inhibition at 2.5 µg/mL ([1]; Mus musculus, 96 h) was 49% and the inhibition at 2.5 µg/mL ([2]; Mus musculus, 96 h) was 24%.

`CSc1c(C#N)c(=O)n2ccccc2c1C(=O)N(Cc1ccccc1)C(C)C` [S-68, N-Benzyl-3-cyano-N-isopropyl-2-methylthio-4H-quinolizin-4-one-1-carboxamide] showed an inhibition at 2.5 µg/mL ([1]; Mus musculus, 96 h) of 41% and an inhibition at 2.5 µg/mL ([2]; Mus musculus, 96 h) of 7%.

Compound `CSc1c(C#N)c(=O)n2ccccc2c1C(=O)O[C@H]1CC[C@H](O)CC1` [S-16, trans-4'-Hydroxycyclohexyl 3-cyano-2-methylthio-4H-quinolizin-4-one-1-carboxylate] has an inhibition at 5 µg/mL ([1]; Mus musculus, 96 h) of 52% and an inhibition at 5 µg/mL ([2]; Mus musculus, 96 h) of 14%.

In the case of `CSc1c(C#N)c(=O)n2ccccc2c1C(=O)N(C)Cc1ccccc1` [S-66, N-Benzyl-3-cyano-N-methyl-2-methylthio-4H-quinolizin-4-one-1-carboxamide], the inhibition at 40 µg/mL ([1]; Mus musculus, 96 h) is reported as 64% and the inhibition at 40 µg/mL ([2]; Mus musculus, 96 h) is reported as 35%.

For `CSc1c(C#N)c(=O)n2ccccc2c1C(=O)OCCCOc1ccccc1` [S-54, 3'-Phenoxypropyl 3-cyano-2-methylthio-4H-quinolizin-4-one-1-carboxylate], the inhibition at 1 µg/mL ([1]; Mus musculus, 96 h, 1.0 μg/ml) was 73% and the inhibition at 1 µg/mL ([2]; Mus musculus, 96 h) was 50%.

`CSc1c(C#N)c(=O)n2ccccc2c1C(=O)Nc1ccc(Nc2ccccc2)cc1` [S-74, N-(4-Anilinophenyl)-3-cyano-2-methylthio-4H-quinolizin-4-one-1-carboxamide] gave an inhibition at 2.5 µg/mL ([1]; Mus musculus, 96 h) of 51% and an inhibition at 2.5 µg/mL ([2]; Mus musculus, 96 h) of 10%.

In the case of `CSc1c(C#N)c(=O)n2ccccc2c1C(=O)N(C1CCCCC1)C1CCCCC1` [S-61, 3-Cyano-N,N-dicyclohexyl-2-methylthio-4H-quinolizin-4-one-1-carboxamide], the inhibition at 2.5 µg/mL ([1]; Mus musculus, 96 h) is reported as 93% and the inhibition at 2.5 µg/mL ([2]; Mus musculus, 96 h) is reported as 48%.

With `C=CCN(C(=O)c1c(SC)c(C#N)c(=O)n2ccccc12)C1CCCCC1` [S-70, N-Allyl-3-cyano-N-cyclohexyl-2-methylthio-4H-quinolizin-4-one-1-carboxamide] the inhibition at 5 µg/mL ([1]; Mus musculus, 96 h) was 65% and the inhibition at 5 µg/mL ([2]; Mus musculus, 96 h) was 32%.

For `CSc1c(C#N)c(=O)n2ccccc2c1C(=O)OC(C)C` [S-8, Isopropyl 3-cyano-2-methylthio-4H-quinolizin-4-one-1-carboxylate], the inhibition at 2.5 µg/mL ([1]; Mus musculus, 96 h) was 36% and the inhibition at 2.5 µg/mL ([2]; Mus musculus, 96 h) was 18%.

For `CSc1c(C#N)c(=O)n2ccccc2c1C(=O)N1CCC2CCCCC21` (single isomer, unassigned) [S-85A, 3-Cyano-2-methylthio-1-(perhydroindol-1-yl-carbonyl)-4H-quinolizin-4-one], the inhibition at 5 µg/mL ([1]; Mus musculus, 96 h) was 43% and the inhibition at 5 µg/mL ([2]; Mus musculus, 96 h) was 23%.

`CSc1c(C#N)c(=O)n2ccccc2c1C(=O)CCCCc1ccccc1` [S-107, 3-Cyano-2-methylthio-1-(5-phenylvaleryl)-4H-quinolizin-4-one] was tested, and the inhibition at 1 µg/mL ([1]; Mus musculus, 96 h, 1.0 μg/ml) was 80% and the inhibition at 1 µg/mL ([2]; Mus musculus, 96 h) was 43%.

`CSc1c(C#N)c(=O)n2ccccc2c1C(=O)N1CCc2ccccc2C1` [S-87, 3-Cyano-2-methylthio-1-(1,2,3,4-tetrahydroisoquinolin-2-ylcarbonyl)-4H-quinolizin-4-one] showed an inhibition at 5 µg/mL ([1]; Mus musculus, 96 h) of 61% and an inhibition at 5 µg/mL ([2]; Mus musculus, 96 h) of 36%.

Work on `CSc1c(C#N)c(=O)n2ccc(C)cc2c1C(=O)CCCCc1ccccc1` [S-108, 3-Cyano-8-methyl-2-methylthio-1-(5-phenylvaleryl)-4H-quinolizin-4-one] yielded an inhibition at 1 µg/mL ([1]; Mus musculus, 96 h, 1.0 μg/ml) of 60% and an inhibition at 1 µg/mL ([2]; Mus musculus, 96 h) of 35%.

With `CSc1c(C#N)c(=O)n2ccc(C)cc2c1C(=O)OCCc1ccccc1` [S-50, 2'-Phenylethyl 3-cyano-8-methyl-2-methylthio-4H-quinolizin-4-one-1-carboxylate] the inhibition at 1 µg/mL ([1]; Mus musculus, 96 h, 1.0 μg/ml) was 64% and the inhibition at 1 µg/mL ([2]; Mus musculus, 96 h) was 42%.

`CSc1c(C#N)c(=O)n2ccccc2c1C(=O)Cc1ccc(C)cc1` [S-99, 3-Cyano-1-(4-methylphenylacetyl)-2-methylthio-4H-quinolizin-4-one] gave an inhibition at 10 µg/mL ([1]; Mus musculus, 96 h, 10.0 μg/ml) of 52% and an inhibition at 10 µg/mL ([2]; Mus musculus, 96 h, 10.0 μg/ml) of 1%.

For `CSc1c(C#N)c(=O)n2ccccc2c1C(=O)N(CCNc1ccccc1)c1ccccc1` [S-67, 3-Cyano-2-methylthio-N-phenyl-N-(2-phenylaminoethyl)-4H-quinolizin-4-one-1-carboxamide], the inhibition at 2.5 µg/mL ([1]; Mus musculus, 96 h) was 68% and the inhibition at 2.5 µg/mL ([2]; Mus musculus, 96 h) was 46%.

Compound `CCC(C)OC(=O)c1c(SC)c(C#N)c(=O)n2ccccc12` (stereo not drawn) [S-10, 1'-Methylpropyl 3-cyano-2-methylthio-4H-quinolizin-4-one-1-carboxylate] has an inhibition at 2.5 µg/mL ([1]; Mus musculus, 96 h) of 48% and an inhibition at 2.5 µg/mL ([2]; Mus musculus, 96 h) of 27%.

With `CSc1c(C#N)c(=O)n2ccccc2c1C(=O)OCCC(C)C` [S-11, Isopentyl 3-cyano-2-methylthio-4H-quinolizin-4-one-1-carboxylate] the inhibition at 5 µg/mL ([1]; Mus musculus, 96 h) was 66% and the inhibition at 5 µg/mL ([2]; Mus musculus, 96 h) was 30%.

In the case of `CSc1c(C#N)c(=O)n2ccccc2c1C(=O)Cc1ccc(Cl)cc1` [S-96, 1-(4-Chlrophenylacetyl)-3-cyano-2-methylthio-4H-quinolizin-4-one], the inhibition at 5 µg/mL ([1]; Mus musculus, 96 h) is reported as 41% and the inhibition at 5 µg/mL ([2]; Mus musculus, 96 h) is reported as 12%.

`C=C(C)CSc1c(C#N)c(=O)n2ccccc2c1C(=O)OCC` [S-56] was tested, and the inhibition at 5 µg/mL ([1]; Mus musculus, 96 h) was 70% and the inhibition at 5 µg/mL ([2]; Mus musculus, 96 h) was 30%.

With `CSc1c(C#N)c(=O)n2ccccc2c1C(=O)OC(C)CCc1ccccc1` (stereo not drawn) [S-46, 1'-Methyl-3'-phenylpropyl 3-cyano-2-methylthio-4H-quinolizin-4-one-1-carboxylate] the inhibition at 1 µg/mL ([1]; Mus musculus, 96 h, 1.0 μg/ml) was 90% and the inhibition at 1 µg/mL ([2]; Mus musculus, 96 h) was 79%.

`CSc1c(C#N)c(=O)n2ccccc2c1C(=O)OC1CCCCC1C` (stereo not drawn) [S-17, 2'-Methylcyclohexyl 3-cyano-2-methylthio-4H-quinolizin-4-one-1-carboxylate] gave an inhibition at 0.25 µg/mL ([1]; Mus musculus, 96 h, 0.25 μg/ml) of 43% and an inhibition at 0.25 µg/mL ([2]; Mus musculus, 96 h, 0.25 μg/ml) of 7%.

With `CCOc1ccc(COC(=O)c2c(SC)c(C#N)c(=O)n3ccccc23)cc1` [S-33, 4'-Ethoxybenzyl 3-cyano-2-methylthio-4H-quinolizin-4-one-1-carboxylate] the inhibition at 20 µg/mL ([1]; Mus musculus, 96 h, 20.0 μg/ml) was 81% and the inhibition at 20 µg/mL ([2]; Mus musculus, 96 h, 20.0 μg/ml) was 47%.

For `CSc1c(C#N)c(=O)n2ccccc2c1C(=O)N1CCN(Cc2ccc3c(c2)OCO3)CC1` [S-89, 3-Cyano-2-methylthio-1-(4-piperonyl-1-piperadinyl-carbonyl)-4H-quinolizin-4-one], the inhibition at 5 µg/mL ([1]; Mus musculus, 96 h) was 58% and the inhibition at 5 µg/mL ([2]; Mus musculus, 96 h) was 32%.

For `CSc1c(C#N)c(=O)n2cccc(C)c2c1C(=O)N1CCC(c2ccccc2)CC1` (single isomer, unassigned) [S-81B, 3-Cyano-9-methyl-2methylthio-1-(4-phenylpiperidinocarbonyl)-4H-quinolizin-4-one], the “Inhibition % of IgE” value ([1]; 1.0 μg/ml) was 50% and the “Inhibition % of IgG” value [2] was 4%.

With `CSc1c(C#N)c(=O)n2ccccc2c1C(=O)OC(C)Cc1ccccc1` (stereo not drawn) [S-43, 1'-Methyl-2'-phenylethyl 3-cyano-2-methylthio-4H-quinolizin-4-one-1-carboxylate] the inhibition at 1 µg/mL ([1]; Mus musculus, 96 h, 1.0 μg/ml) was 75% and the inhibition at 1 µg/mL ([2]; Mus musculus, 96 h) was 46%.

In the case of `CSc1c(C#N)c(=O)n2ccccc2c1C(=O)OCC(c1ccccc1)c1ccccc1` [S-44, 2',2'-Diphenylethyl 3-cyano-2-methylthio-4H-quinolizin-4-one-1-carboxylate], the inhibition at 1 µg/mL ([1]; Mus musculus, 96 h, 1.0 μg/ml) is reported as 54% and the inhibition at 1 µg/mL ([2]; Mus musculus, 96 h) is reported as 18%.
